One test has as its system PI-IBS rats. The test is described as follows: EMG recording: visceral motor response to graded colorectal distension (CRD). The format is in vivo, rat. The protocol:
Sprague-Dawley male rats (Laboratory Animal Services Centre, The Chinese University of Hong Kong) aged 6 weeks with body weight around 220 g are used to develop PI-IBS model. Briefly, rats are fasted for 24 h, and deeply anesthetized with chloral hydrate (350 mg.kg^−1, i.p.). After induction of colitis by 2,4,6-trinitrobenzenesulfonic acid solution (TNBS, 5 mg/0.8 ml/rat, in 50% ethanol, 8 cm from anus) administration, the rats are allowed to recover for at least 4 weeks before use. The control rats are similarly administered with 0.8 ml saline instead of TNBS. Only the rats that have completely recovered from the initial inflammation and acquired visceral hypersensitivity are used as the PI-IBS rats.
6 groups of 12 rats are tested. Normal rats (Group 1) are treated with water. PI-IBS rats are randomly divided into 5 groups and orally treated with water (Group 2), Doxantrazole (mast cell stabilizer, 30 mg/kg/d, Group 3), and Quercetin (Group 4-6) at the dose of 5, 10, and 20 mg/kg/d, respectively. After 2 weeks daily drug administration, 5 rats in each group are used to measure pain threshold pressure by abdominal withdrawal reflex (AWR) test, and the remaining […] is used for electromyography (EMG) recording.
AWR test is performed as previously described in Al-Chaer E D, Kawasaki M, Pasricha P J. A new model of chronic visceral hypersensitivity in adult rats induced by colon irritation during postnatal development. Gastroenterology. 2000 November; 119(5):1276-85. Briefly, rats are lightly anesthetized with ether; a latex balloon is inserted into the descending colon. Rats are then allowed to recover for about 1 h. The tube of the balloon is connected via a Y-connector to a sphygmomanometer and colorectal distension is applied in increments of 5 mmHg until a visible contraction of the abdominal wall is observed by an investigator blinded to the treatment. The pain threshold pressure is defined as the intensity of colorectal distension (CRD) that elicited an observable AWR, i.e. a sudden and persistent abdominal muscle contraction with abdomen lift off the platform. The pain threshold pressure of all groups is recorded and repeated five times with intervals of at least 5 minutes for recovery. EMG recording are conducted as previously described in Tammpere A, Brusberg M, Axenborg J, Hirsch I, Larsson H, Lindstrom E. Evaluation of pseudo-affective responses to noxious colorectal distension in rats by manometric recordings. Pain. 2005 August; 116(3):220-6 and Li Z, Zhang X J, Xu H X, Sung J J, Bian Z X. Intracolonical administration of protease-activated receptor-2 agonists produced visceral hyperalgesia by up-regulating serotonin in the colon of rats. Eur J. Pharmacol. 2009 Mar. 15; 606(1-3):199-204. Firstly, a surgical operation is made to implant the electrodes into the left external abdominal oblique muscles 7 days before EMG recording. After the last drug administration, a flexible latex balloon is inserted into the rat descending colon, and the rats are allowed to accommodate for 1 h. CRD is initiated, and the EMG signal is amplified and filtered by Power Lab System. Graded colorectal distension (20, 40, 60, and 80 mmHg; 20 s duration; 2 min inter-stimulus interval) is carried out for total three cycles to each rat. The changes of area under the curve (AUC) are calculated using that during 20 s distension period over the 20 s baseline.

The subject of the next test is p-Cdc-2. The test is described as follows: Western blot of p-Cdc-2 in QGP-1 cells. The format is cell-based, human. The following applies: QGP-1, 50-100 μM, 24 h. The protocol: After drug treatment, the cells are lysed and centrifuged to collect the protein extract After determination of protein content, the samples protein are denatured at 100° C. for 5 min Proteins are separated by 10-12% SDS-PAGE and transferred to PVDF membranes (Bio-Rad, CA). After blocking with 5% nonfat milk for 1 h at room temperature, the membranes are incubated overnight at 4° C. with primary antibodies (mouse anti-cyclin BE 1:500, Abcam; goat anti-p-Cdc2:1:500, Santa Cruz; mouse anti-p21: 1:500, BD Bioscience). After washing three times in TBST, the membranes where incubated with the appropriate secondary antibodies (1:2000, Invitrogen) for 1 h at room temperature. The immunoreaction is detected using ECL Western blotting kit (ECL, Amersham, UK). Bands are visualized on Biomax X-ray film, and optical density of each band is semi-quantified by software (Image J.NIH). In order to adjust for any variations in loading, all detected protein bands are normalized to β-actin levels.
On the technique in general: A western blot detects proteins with antibodies after separation by electrophoresis.

A further test has as its system normal rats. Nature of the test: Colonic EC cell density in normal rats. The format is in vivo, rat. As to conditions: 10 mg/kg i.g., 14 days. How it is done: Tissue sections (5-μm thick) are deparaffinized and rehydrated for silver staining. Briefly, sections are incubated with 5% ammoniacal silver solution for 4 h at room temperature, then 2 h in 56° C. and subsequently 12 h at room temperature in a dark humidified chamber. After rinsing with water, 5% sodium hyposulfite is added and the tissue sections are incubated for 5 min at room temperature. The brown to black silver precipitate in the cytoplasm of EC cells represents as a positive reaction. A researcher blinded to treatment counted 5 random fields at 200× magnifications for each section, and the number of EC cells per mm^2 of mucosa is quantified using Image J NIH software.
To identify whether the effects of Quercerin in PI-IBS rats are specific, pain threshold pressure, colonic EC cell number and 5-HT content are further evaluated in normal rats treated with Quercetin. Briefly, Quercetin at the dose of 10 mg/kg is administered to normal rats orally for 14 days. After the final drug administration, pain threshold pressure, colonic EC cell density and 5-HT content are evaluated and the methods used here are as same as that shown in above experiments.

Data on one compound can be found in patent US20130210907A1, “METHOD FOR PREVENTING OR TREATING ENTEROCHROMAFFIN CELL HYPERPLASIA-RELATED DISEASES BY QUERCETIN ADMINISTRATION” (HONG KONG BAPTIST UNIVERSITY, priority 2012, published 2013).

SMILES strings stand for the structures.

`O=c1c(O)c(-c2ccc(O)c(O)c2)oc2cc(O)cc(O)c12` [Quercetin, 2-(3,4-dihydroxyphenyl)-3,5,7-trihydroxy-4H-chromen-4-one]: the “AUC value under graded distension pressures (EMG)” value with PI-IBS rats (5 mg/kg i.g., 20 mmHg) is reported as 161.22 ± 41.53; in the test with PI-IBS rats (5 mg/kg i.g., 40 mmHg), 463.55 ± 12.42; in the test with PI-IBS rats (5 mg/kg i.g., 60 mmHg) it was 586.42 ± 56.68; with PI-IBS rats (5 mg/kg i.g., 80 mmHg) it was 906.84 ± 41.08; with PI-IBS rats (10 mg/kg i.g., 20 mmHg), 124.61 ± 67.68; in the test on PI-IBS rats (10 mg/kg i.g., 40 mmHg) it was 386.85 ± 65.68. The “AUC value under graded distension pressures (EMG)” value turned out to be 530.98 ± 21.08 with PI-IBS rats (10 mg/kg i.g., 60 mmHg); 842.34 ± 62.92 with PI-IBS rats (10 mg/kg i.g., 80 mmHg); 88.28 ± 43.43 in the test with PI-IBS rats (20 mg/kg i.g., 20 mmHg); 319.78 ± 118.03 with PI-IBS rats (20 mg/kg i.g., 40 mmHg); 470.73 ± 173.52 in the test with PI-IBS rats (20 mg/kg i.g., 60 mmHg); 725.28 ± 192.44 in the test on PI-IBS rats (20 mg/kg i.g., 80 mmHg). For the same compound, the “Protein level of p-Cdc-2” value in the test on p-Cdc-2 is given as “significantly decrease”. The compound also displayed an EC cell density in the test on normal rats of 91 ± 10 Number/mm^2.
